Experimental data taken from patent US10093642B2, “Multitarget hedgehog pathway inhibitors and uses thereof” (UNIVERSITA' DEGLI STUDI DI SIENA, priority 2013, dated 2018).
Entries after “also recorded” stand apart in the source; their conditions may differ.

Legend:
[1] = system: Hh pathway (Gli-RE reporter, activated by SMO agonist SAG); assay: Gli-luciferase reporter assay in SAG-treated NIH 3T3 Shh-light II cells; type: cell-based
Protocol: FIG. 4. Effect of active natural compounds identified by the pharmacophore screening in a luciferase assay, where the gene reporter was Gli1 and the pathway was activated by the SAG molecule, a potent SMO agonist. Natural compounds were tested at three different concentrations (1, 10 and 20 μM) and their activity was compared to that of cyclopamine, the natural compound reference inhibitor of the Hedgehog pathway, which was tested at the same doses (1, 10 and 20 μM). On both graphs the activity of cyclopamine is reported as reference standard. (A) cyclopamine, 2,4,5,3′,4′-penta-Ome chalcone and Auriculasin; (B) cyclopamine, Martinoside, Jaceidin, 2,4,5,3′,4′-penta-Ome chalcone, 3,4-di-MDO-2′,4′,5′-tri-Ome dihydrochalcone.
FIG. 6. Dose-response curve of Glabrescione B in SAG (Smoothened Agonist, 200 nM) treated NIH 3T3 Shh-light II (Shh-LII) cells. Treatment time was 48 h and normalization was against Renilla luciferase. Shown is the fold increase of Hh reporter activity compared with cells not treated with SAG.
FIG. 19. Effect of derivatives NT8, NT9, NT10, NT11, NT12, NT13, NT14 and NT15 on the Hedgehog pathway, measured at 5 μM dose in a luciferase assay where the gene reporter was Gli1 and the pathway was activated by the SAG molecule, a potent SMO agonist. […]
To investigate the inhibitory properties of Glabrescione B on Hh signaling, the inventors examined its effects in NIH 3T3 Shh-light II (Shh-LII) cells stably incorporating an Hh-responsive (Gli-RE) reporter, in which induction of the pathway occurs following treatment with the SMO agonist SAG. […] The IC50 in this assay was 0.8 μM.
The ability of Glabrescione B to suppress Hh signaling was assessed in a cellular context of Hh pathway induction. To this end, the antagonist properties of Glabrescione B were determined in Shh Light II (ATCC, cat. # CRL-2795), a murine fibroblast NIH 3T3 cell line. These cells, stably incorporating the Gli-luc reporter and the pRL-TK Renilla reniformis (as described in Taipale, Chen et al. 2000) are a standard tool used to assay Hh pathway activity. The cells that reached the confluence were treated for 48 h with the SMO agonist SAG (200 nM, Alexis, cat. #ALX-270-426-M001) in absence or in presence of Glabrescione B at the amount indicated in FIG. 6. […] Control cells were treated with only DMSO (0.5%, SERVA, cat. #39757.02) Determination of luciferase activities was carried out using the Dual-Luciferase assay according to manufacturer's instructions (Dual-Luciferase® Reporter assay system; Promega, cat. # E1980). All presented data are firefly luciferase activity reported to the Renilla control activity. […] IC50 of 0.8 μM, represents the concentration of Glabrescione B necessary to have fifty percent of inhibition.
Evaluation of the Hh inhibitory activity of these molecules at 5 μM was preliminarily conducted in vitro on Shh Light II cells (see example 2).

[2] = system: Wnt/Bcatenin; assay: Selectivity: unrelated signal transduction pathway Wnt/Bcatenin; type: cell-based
[3] = system: Ptch1+/− MB allografts; assay: Ptch1+/− MB allograft in nude mice; type: in vivo, BALB/c nude mice; conditions: 18 days
Excerpt: FIG. 17. Glabrescione B inhibits Gli1-dependent MB tumor growth in vivo (Ptch1^+/− MB allografts). (A) Change of tumor volume during Glabrescione B (GlaB) or vehicle (CTR) treatment period (days 18). […] (C) qRT-PCR of Gli1 and Ptch1 mRNA expression levels normalized with endogenous control β2-microglobulin and HPRT.
Therefore, to verify the Glabrescione B efficacy to inhibit Hh-dependent tumor cell growth in vivo, we turned to an allograft model of MB cells. Spontaneous Medulloblastomas from Ptch1^+/− mice were isolated, minced, pipetted to obtain a single-cell suspension and grafted s.c. at the posterior flank of female BALB/c nude mice (nu/nu) (Charles River Laboratories, Lecco, Italy). Tumors were grown until a median size of ˜100 mm^3. Animals were randomly divided into two groups (n=6) and treated with solvent only (2-hydroxypropyl-β-cyclodextrin:ethanol, 3:1) or Glabrescione B in solvent (75 μmol/Kg) for 18 days (2-hydroxypropyl-β-cyclodextrin was purchased from Sigma Aldrich, St. Louis, Mo., USA). 2×10^6 ASZ001 BCC cells were resuspended in an equal volume of 154CF medium and Matrigel (BD Biosciences, Heidelberg, Germany) and injected s.c. at the posterior flank of female NOD/SCID mice (Charles River Laboratories, Lecco, Italy), as previously described (Eberl et al, 2012). Tumors were grown until a median size of ˜200 mm^3. Animals were randomly divided into two groups (n=6) and treated with solvent only (2-hydroxypropyl-β-cyclodextrin:ethanol, 3:1) or Glabrescione B in solvent (100 μmol/Kg) for 18 days. Tumor volumes change was calculated by the formula length×width×0.5×(length+width) (Lauth et al, 2007).
Nude mice were grafted with spontaneous primary MB from Ptch1^+/− mice and treated every second day with s.c. injections of Glabrescione B at a concentration of 75 μmol/Kg or solvent only (n=6 for each group).

For `COc1cc(OC)c2c(=O)c(-c3ccc(OCC=C(C)C)c(OCC=C(C)C)c3)coc2c1` [Glabrescione B, 3-(3′,4′-bis(3-methylbut-2-enyloxy)phenyl)-5,7-dimethoxy-4H-chromen-4-one], the “effect on Hh pathway in luciferase assay” value ([1]; Gli1 gene reporter, pathway activated by SAG, cyclopamine as reference) was “inhibit the Hh pathway; also recorded: most potent lead”, the IC50 ([1]; Mus musculus, SAG 200 nM, 48 h, normalized to Renilla, read-out: IC50 of luciferase reporter activity (Hh signaling)) was 800 nM and the inhibition at 5 µM ([1]; Mus musculus, at 5 μM, highly active class) was greater than 50%. The inhibition at 30 µM [2] was 0%, the tumor mass ([3]; 75 μmol/Kg s.c. every second day) was “significantly suppressed tumor mass” and the “Gli1 mRNA levels in tumors” value ([3]; 75 μmol/Kg s.c.) was “reduction of Gli1 mRNA levels”. The “Ki67 staining in tumors” value ([3]; 75 μmol/Kg s.c.) was “decreased Ki67 staining”.
